Test results taken from ChEMBL document CHEMBL3739260, “Substituted 4-hydroxy-1,2,3-triazoles: synthesis, characterization and first drug design applications through bioisosteric modulation and scaffold hopping approaches” (Medchemcomm, 2015).

Tests used:
[1] = Dissociation constant, pKa of the compound; format: physicochemical
[2] = Displacement of [3H]AMPA from AMPA receptor in rat cortical synaptosomes; format: subcellular
[3] = Displacement of [3H]KA from Kainate receptor in rat cortical synaptosomes; format: subcellular
Glutamate NMDA receptor = assay: Displacement of [3H]CGP39653 from NMDA receptor in rat cortical synaptosomes; format: subcellular
Chitinase = biological target: T1, Chitinase (Onchocerca volvulus, UniProt Q25615); assay: Inhibition of Onchocerca volvulus chitinase by fluorescence based assay
T1 sequence (Q25615 whole entry): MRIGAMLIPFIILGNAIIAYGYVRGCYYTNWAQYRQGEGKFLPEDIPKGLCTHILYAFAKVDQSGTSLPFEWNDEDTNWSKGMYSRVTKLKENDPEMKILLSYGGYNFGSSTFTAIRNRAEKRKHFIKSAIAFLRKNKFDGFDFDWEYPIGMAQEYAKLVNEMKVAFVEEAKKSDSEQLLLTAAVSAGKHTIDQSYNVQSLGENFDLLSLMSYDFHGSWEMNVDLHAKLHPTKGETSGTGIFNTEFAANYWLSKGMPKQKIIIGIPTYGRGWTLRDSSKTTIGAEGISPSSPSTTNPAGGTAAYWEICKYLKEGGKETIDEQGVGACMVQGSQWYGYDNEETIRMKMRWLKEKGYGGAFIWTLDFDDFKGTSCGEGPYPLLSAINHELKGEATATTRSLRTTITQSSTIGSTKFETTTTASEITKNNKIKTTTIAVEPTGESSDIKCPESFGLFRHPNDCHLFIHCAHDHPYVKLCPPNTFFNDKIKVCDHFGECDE

## Cn1nnc(O)c1CC(N)C(=O)O (racemic)
[1]
  pKa: 6.42
[2]
  IC50: 1.4 µM
[3]
  IC50: > 100 µM
Glutamate NMDA receptor
  Ki: > 100 µM

## CCOC(=O)c1c(O)nnn1C
[1]
  pKa: 5.54

## CCOC(=O)c1c(O)nnn1Cc1ccccc1
[1]
  pKa: 5.38

## CCOC(=O)c1nonc1O
[1]
  pKa: 3.24

## O=C(Nc1ccc(Oc2ccccc2)cc1)c1c(OCc2ccccc2)nnn1Cc1ccccc1
Chitinase
  IC50: 0.41 µM

## N[C@@H](Cc1nsnc1O)C(=O)O
[2]
  IC50: 0.065 µM
[3]
  IC50: > 100 µM
Glutamate NMDA receptor
  Ki: > 100 µM

## Cn1nnc(O)c1C(=O)Nc1ccc(Oc2ccccc2)cc1
Chitinase
  IC50: 4.69 µM

## CCOC(=O)c1nnn(C)c1O
[1]
  pKa: 6.21

## CCOC(=O)c1nsnc1O
[1]
  pKa: 4.21

## O=C(Nc1ccc(Oc2ccccc2)cc1)c1c(OCc2ccccc2)nnn1CC1CCCCC1
Chitinase
  IC50: 0.52 µM

## O=C(Nc1ccc(Oc2ccccc2)cc1)c1c(O)nnn1CC1CCCCC1
Chitinase
  IC50: 5.11 µM

## CCOC(=O)c1cn(C)nc1O
[1]
  pKa: 6.71

## O=C(Nc1ccc(Oc2ccccc2)cc1)c1nn(Cc2ccccc2)nc1OCc1ccccc1
Chitinase
  IC50: 0.41 µM

## CCOC(=O)c1nn(C)nc1O
[1]
  pKa: 5.14

## CCOC(=O)c1nn(Cc2ccccc2)nc1O
[1]
  pKa: 5.14

## CCOC(=O)c1nnn(Cc2ccccc2)c1O
[1]
  pKa: 6.22

## N[C@@H](CCC(=O)O)C(=O)O [GLUTAMIC ACID]
[1]
  pKa: 4.2

## Cn1nc(O)c(CC(N)C(=O)O)n1 (racemic)
[3]
  IC50: > 100 µM
Glutamate NMDA receptor
  Ki: > 100 µM
